Consider one sequence from paper PMC10630888, “Nuclear ERK1/2 signaling potentiation enhances neuroprotection and cognition via Importinα1/KPNA2” (EMBO Molecular Medicine, 2023).

Values joined by “and” are separate entries in the source; they are usually repeats but may differ in a detail not shown here. Equal values may be shown once.

Common to all, as to type: in vivo, mouse
The test system of one experiment is pAcH3. The experiment in a line: Striatal pAcH3 immunofluorescence 1 h after single injection. The note with it: single injection 20 mg/kg i.p., individual mice. The method, then: Immunofluorescence was performed as described in Papale et al ([2016]). Briefly, 1 h after blocking in 5% normal goat serum, slices were incubated overnight at 4°C with the following primary antibodies: anti‐phospho (Ser10)‐acetylated (Lys14) histone H3 (1:1,000, Millipore), anti‐phospho‐S6 ribosomal protein (Ser235/236) (1:200, Cell Signaling Technology) anti‐phospho‐S6 ribosomal protein (Ser240/244) (1:200, Cell Signaling), cleaved caspase‐3 (1:200, Cell Signaling Technology), anti‐mutant Huntingtin (1:100, Developmental Studies Hybridoma Bank, University of Iowa, #MW8), and NeuN (1:1,000, Millipore). Corresponding secondary antibodies (Alexa Fluor 546 conjugated anti‐mouse (1:200, Thermo Fisher Scientific), Alexa Fluor 488 conjugated anti‐rabbit (1:500, Thermo Fisher Scientific) and Pacific Blue goat anti‐mouse (1:200, Thermo Fisher Scientific) were incubated at room temperature for 1 h. Sections stained for mutant Huntingtin were incubated with DAPI for 20 min. Sections were subsequently mounted with fluorescent mounting medium (DAKO). Single and double‐labeled images ([…]) were obtained at 40× magnification from the striatum using a laser scanning confocal microscope (Leica SP2) equipped with the corresponding lasers and appropriate filter sets to avoid the crosstalk between the fluorochromes.
(§1) In ex‐vivo and in‐vivo immunofluorescence experiments, the number of p‐S6 or p‐AcH3 immunoreactive neurons among NeuN‐positive neurons was counted in 2–3 consecutive striatal sections per mouse in four fields per section. Caspase 3‐positive cells were quantified among NeuN‐positive neurons in each slide and expressed as percentage (ratio between caspase‐3‐positive cells and total NeuN‐positive neurons) for each field acquired through the slide. The number of cells showing mutant Huntingtin inclusions were expressed as a percentage of mutant Huntingtin‐positive cells among DAPI‐positive cells.

Experiment [1] has as its system cleaved caspase-3. The experiment in a line: Cleaved caspase-3 in striatum, 3-NP model with RB5. The note with it: peptide 20 mg/kg i.p. twice a day plus 3-NP 50 mg/kg i.p. once a day, 7 days; individual mice.
Text: as §1

The subject of the next experiment is pERK. Kind of experiment: pERK in striatum of HdhQ111/+ mice treated with RB5. The note with it: for pERK in striatum (Fig 5 panel d): individual animals. On the procedure:
(§2) Immunohistochemistry was performed as described in Papale et al ([2016]). Briefly, 1 h after blocking in 5% normal goat serum and 0.1% Triton X‐100 solution, free‐floating sections were incubated overnight at 4°C with one of the following primary antibodies: anti‐phospho‐p44/42 MAP kinase (Thr202/Tyr204) (1:200, Cell Signaling Technology #9101), anti‐phospho–Elk‐1 (Ser383) (1:100, Cell Signaling #9181), anti‐phospho‐Kv4.2 (Thr607)‐R (1:100, Santa Cruz sc22254‐R), anti‐phospho‐MSK‐1 (1:100 Cell Signaling Technology #9595), anti‐phospho‐MEK1/2 (Ser218/222) (1:100, sc‐7995 Santa Cruz Biotechnology), c‐Fos (1:100, sc‐52 Santa Cruz Biotechnology), tyrosine Hydroxylase (monoclonal 1:1,000, Sigma Aldrich, Italy) and anti‐DARPP‐32 (H3) (1:100, Santa Cruz Biotechnology, #sc‐271111) overnight at 4°C. Sections were then incubated with biotinylated goat anti‐rabbit IgG (1:200, Vector Laboratories) or biotinylated goat anti‐mouse (1:200, Vector Laboratories) for 2 h. The classic avidin‐peroxidase complex (ABC, Vector, UK) protocol was applied, using 3,3′‐diaminobenzidine (DAB, Sigma) as a chromogen.
For in vivo immunohistochemistry experiments, images were acquired from the dorsal striatum using a Leica DM IRB microscope under a 20× objective. The number of p‐ERK, p‐MSK‐1, p‐ELK, p‐MEK‐1, p‐VG K+, c‐Fos, and DARPP‐32 positive cells was counted in 2–3 consecutive sections per mouse, bilaterally and averaged across the sections using the ImageJ software by a blind investigator to the condition. Estimation of nigral cell loss was assessed by quantifying the number of TH‐immunopositive neurons of the SNc in 360 μm‐spaced sections for each animal.

In experiment [2] the test system is cleaved caspase-3. Kind of experiment: Cleaved caspase-3 in SN, MPTP model.
Text: as §1
1‐methyl‐4‐phenyl‐1,2,3,6‐tetrahydropyridine‐hydrochloride (MPTP‐HCl, Sigma, Italy) was dissolved in saline and administered i.p. once daily at a dose of 20 mg/kg for 4 days. RB5 (20 mg/kg i.p.) was injected daily 30 min before MPTP.

Another experiment relates to pERK in CA1. The experiment in a line: pERK in hippocampal CA1 of Tg2576 mice. The note with it: for pERK in hippocampal CA1 (Fig 5 panel j): individual animals. On the procedure:
as §2
Tg2576 mice were administered with RB5 or Scramble (20 mg/kg i.p.) for either 7 days, for IHC analysis, or with a single injection (20 mg/kg i.p.), for behavioral analysis.

In the case of “GRKKRRQRRRPPQGGGGGEPRRTEGVGPGVPGEVEMVKGQPFDV [RB5, six D-amino acids, acetylated N-terminus]”, the “pAcH3 positive neurons in striatum” value is “enhanced pERK and pAcH3 in WT” with pAcH3 (ERK1+/+ (WT) mice); “not in ERK1 KO mice” in the experiment on pAcH3 (ERK1-/- mice); “selectively activated” in the experiment on pAcH3 (1 h). The “Cleaved caspase-3-positive cells among NeuN-positive neurons” value in the experiment with cleaved caspase-3 [1] was “significantly reduced neuronal death”. Moreover, in the experiment with pERK (10 month-old HdhQ111/+ mice, 20 mg/kg i.p. for 8 days), the “ERK activity (pERK) in striatum” value was “enhancing ERK activity”. The “pERK in striatum (Fig 5 panel d)” value in the experiment with pERK (HdhQ111/+ mice) was 485.6 and 573.909 and 510.978 and 613 and 540.374 and 579.569 and 517.606 and 519.5 and 515.6; with pERK (WT mice), 416.7 and 470.92 and 371.49 and 542.1 and 453.63 and 361.4 and 405.17 and 381.6. Moreover, the “Apoptotic cell death (cleaved caspase-3-positive cells)” value in the experiment on cleaved caspase-3 [2] (MPTP 20 mg/kg i.p. and RB5 20 mg/kg i.p. for 4 days) was “counteracted apoptotic cell death”. Also, the “cleaved caspase-3 in SN (Fig 5 panel h)” value in the experiment on cleaved caspase-3 [2] (MPTP model, individual animals) is 15.9941 and 14.3542 and 22.1236 and 12.1639 and 12.097 and 11.2152 and 20.664 and 29.614 and 13.0618 and 19.582 and 19.4193 and 16.215 and 16.8899 and 24.4755. Further, in the experiment with pERK in CA1 (Tg2576 mice, 7 months old, 20 mg/kg i.p. for 7 days), the “ERK phosphorylation in hippocampal CA1” value was “restored ERK phosphorylation”. The “pERK in hippocampal CA1 (Fig 5 panel j)” value in the experiment on pERK in CA1 (Tg2576 mice) was 12.58 and 9.08 and 13.47 and 9.49 and 10.2 and 10.95 and 9.29 and 11.78; in the experiment with pERK in CA1 (WT mice), 8.46 and 10.53 and 9.48 and 11.97 and 13.27 and 10.48 and 8.7.
